For series [1] the following is noted: cited from earlier work.
Series [2] has as its system P. aeruginosa WACC91. In words: Minimum inhibitory concentration by broth microdilution (Example 2). The series is classed as cell-based, Pseudomonas aeruginosa. The protocol:
(§1) Bacterial strains were maintained as suspensions in 20% (v/v) glycerol/Brain-Heart Infusion at −80° C. For use, a loop-full of ice was scraped from the stock and streaked for single colonies on rich media containing 1.8% agar (for Pseudomonas aeruginosa or Klebsiella pneumoniae, Luria-Bertani medium; for Staphylococcus aureus or Streptococcus pneumoniae, Trypticase Soy agar) and incubated overnight at 37° C.
(§2) A standard inoculum was prepared from broth culture. 1 to 3 colonies from an overnight agar culture plate were transferred to 5 ml of broth media and incubated at 37° C. with shaking (200 rpm) until turbidity was greater than that of a 0.5 McFarland Standard (overnight). The following broth media were used: Cation-adjusted Mueller-Hinton broth (caMHB—all strains); Roswell Park Memorial Institute medium (RPMI 1640, phenol red-free—S. aureus); Trypticase Soya Broth (TSB—S. aureus, S. pneumoniae); Todd Hewitt Broth (THB—S. pneumoniae), M63 minimal medium, supplemented with 0.2% glucose (M63—K. pneumoniae).
(§3) The broth culture was diluted in broth to a turbidity equal to a 0.5 McFarland Standard using a spectrophotometer at a wavelength of 620 nm. The 0.5 McFarland Standard was further diluted 1:100 in broth to create the standard inoculum. 50 μl of this standard inoculum was dispensed into every well in the microtitre tray, except the negative controls, where 50 μl of broth was dispensed instead.
(§4) Next, a working concentration at two times the highest target concentration for every antimicrobial was created in broth from stock solutions. 100 μl of this working concentration was pipetted into the first well, and 50 μl of broth media into all other wells. 50 μl of the first well was pipetted out and serially diluted across all wells in the row until the final concentration in the range achieved. 50 μl from the final well was removed and discarded. This produced a concentration range where each well was double the target concentration. All agents were performed in duplicate.
(§5) 96 well trays were incubated at 37° C. for 18±2 hours.
A general note: Broth dilution looks for growth in wells or tubes with falling amounts of substance.

Series [3] deals with S. aureus 29213 (MSSA). Described as above. In kind it is cell-based, Staphylococcus aureus. As to conditions: for MIC + 1 mM D-Lactic acid: antibiotic + 1 mM D-Lactic acid; for MIC + 10 mM D-Lactic acid: antibiotic + 10 mM D-Lactic acid. Here is the method: (§6) Bacterial strains were maintained as suspensions in 20% (v/v) glycerol/Brain-Heart Infusion at −80° C.
(§7) A standard inoculum was prepared from broth culture.
as §3, §4, §5

The test system of series [4] is S. aureus 510 (MRSA). The description is as above. The series is classed as cell-based, Staphylococcus aureus. As to conditions: unit assumed; for MIC + 1 mM D-Lactic acid: antibiotic + 1 mM D-Lactic acid; for MIC + 10 mM D-Lactic acid: antibiotic + 10 mM D-Lactic acid; for MIC: antibiotic alone. The protocol: as §6, §7, §3, §4, §5
The test system of series [5] is S. pneumoniae D39. The description is as above. The series is classed as cell-based, Streptococcus pneumoniae. Here is the method:
as §1, §2, §3, §4, §5

The test system of series [6] is S. aureus 29213 (MSSA). Description: Resazurin reduction for the evaluation of metabolic activity (Example 2). In kind it is cell-based, Staphylococcus aureus. As to conditions: plus 10 mM D-Lactic acid. Here is the method: as §6
(§8) Aerobic respiration was measured in the presence or absence of D-Lactic acid and the presence or absence of companion antibiotics either following incubation and visual recording of the MIC, or in a separate study. For evaluation after completion of MIC determination, the entire volume of the MIC well (100 μl) was mixed by pipetting up and down, then transferred to the equivalent well of a fluorescence-absorbance suitable 96-well plate. Alternatively, cultures were pipetted together as above and incubated overnight at 37° C. in the absence of any antimicrobial compounds. Culture supernatants were removed, adherent cells washed and then treated by the addition of 100 μL of fresh broth, 50 μL of broth containing 4×the desired concentration of antibiotic and 50 μL containing 4×the desired concentration of D-Lactic acid or vehicle only controls, followed by incubation at 37° C. for a further 18±2 hours. After incubation regimes were completed for both procedures, resazurin reduction was evaluated by adding 10 μl of a 0.02% resazurin solution to every well, and incubating the plates with gentle shaking (40 rpm) for a further 90 minutes at 37° C. 96-well plates and resazurin were protected from light as much as possible.
(§9) Following incubation, the 96-well trays were read on a fluorescence-absorbance spectrophotometer, using an excitation frequency of 565 nm and emission frequency of 590 nm. The value for each well was blanked by subtracting the value of the negative control. Every value was then converted to a ratio with respect to the mean value of the positive controls.
For orientation: The colour change of resazurin is a common sign of viable cells or microbes.

In series [7] the test system is S. aureus 510 (MRSA). Described as above. In kind it is cell-based, Staphylococcus aureus. Here is the method:
as §6, §8, §9

The test system of series [8] is P. aeruginosa strain WACC91. In words: Resazurin reduction of planktonic cultures in M63 (glucose), D- versus L-Lactic acid (Example 3). The series is classed as cell-based, Pseudomonas aeruginosa. The protocol:
. Viable cells reduce the blue resazurin dye to the pink, fluorescent resorufin form. Following incubation fluorescence was quantified by excitation wavelength of 540 nm and an emission wavelength of 590 nm using Enspire microplate reader.
P. aeruginosa strain WACC91 was maintained as a suspension in 20% (v/v) glycerol/Brain-Heart Infusion at −80° C. For use, a loop-full of ice was scraped from the stock and streaked for single colonies on LB media containing 1.8% agar and incubated overnight at 37° C. Isolated colonies were looped into 5 mL of LB broth and incubated at 37° C. with shaking until turbidity was greater than that of a 1.0 McFarland Standard (3-4 h).
The broth culture was diluted in M63 minimal media containing 0.2% (w/v) glucose as the sole carbon source to a turbidity equal to a 1.0 McFarland standard using a spectrophotometer at a wavelength of 595 nm. This culture was then diluted 1:100 in M63 (glucose) and 100 μL together with an additional 50 μL was transferred to each well of a 96 well microtitre tray and incubated overnight at 37° C., 5% CO2. D-Lactic acid, L-Lactic acid, or vehicle only (sterile H2O) was then applied by adding 50 μL of appropriate stock solutions diluted in M63 (glucose) and incubating for a further 24 hours at 37° C., 5% CO2. Culture metabolic activity was then determined using resazurin reduction as described above in Example 1.

The test system of series [9] is S. pneumoniae D39. Description: Resazurin reduction for the evaluation of metabolic activity (Example 2). In kind it is cell-based, Streptococcus pneumoniae. The note with it: plus 10 mM D-Lactic acid. Here is the method:
as §6, §8, §9

Series [10] deals with S. aureus MRSA 510. Description: Minimum inhibitory concentration of metal salts by broth microdilution in Trypticase Soya broth (Example 4). The series is classed as cell-based, Staphylococcus aureus. The protocol: Bacterial strains were maintained as suspensions in 20% (v/v) glycerol/Brain-Heart Infusion at −80° C. For use, a loop-full of ice was scraped from the stock and streaked for single colonies on Trypticase Soya agar containing 1.8% agar and incubated overnight at 37° C.
A standard inoculum was prepared from broth culture. One to three colonies from an overnight agar culture plate were transferred to 5 ml of broth media and incubated at 37° C. with shaking (200 rpm) until turbidity was greater than that of a 0.5 McFarland Standard (overnight). All assays were performed in Trypticase Soya broth.
as §3
Next, a working concentration at two times the highest target concentration for every salt (in aqueous solution) was created in broth from stock solutions. 100 μl of this working concentration was pipetted into the first well, and 50 μl of broth media into all other wells. 50 μl of the first well was pipetted out and serially diluted across all wells in the row until the final concentration in the range achieved. 50 μl from the final well was removed and discarded. This produced a concentration range where each well was double the target concentration. All agents were performed in duplicate.
as §5

[11] abbreviates: antibiotic + 1 mM D-Lactic acid.
[12] abbreviates: antibiotic + 10 mM D-Lactic acid.

≈ marks a conversion by molar mass, not a printed value.

On to `CCCC(O)C(=O)O` (stereo not shown) [2-hydroxypentanoic acid], for which the “Water solubility*” value in [1] is 1640 mM.

As for `CCCCC(O)C(=O)O` (stereo not shown) [2-hydroxyhexanoic acid], in series [1], the “Water solubility*” value was 270 mM.

Regarding `C[C@@H](O)[C@H]1C(=O)N2C(C(=O)O)=C(S[C@@H]3CN[C@H](C(=O)N(C)C)C3)[C@H](C)[C@H]12` [meropenem], the “MIC + 1 mM D-Lactic acid” value in series [2] (setting [11]) is <0.5; in series [3], 0.5; in [4], 2 µg/mL; in series [5] (setting [11]) it was 0.25. Further, the “MIC + 10 mM D-Lactic acid” value was <0.5 in series [2] (setting [12]), 0.5 in series [3], 2 µg/mL in series [4] and 0.5 in [5] (setting [12]). For the same compound, the MIC was 1.0 in series [2] (antibiotic alone), > 4 µg/mL in series [4] and 0.5 in series [5] (antibiotic alone). Besides, the “Relative metabolic activity, antibiotic plus D-Lactic acid versus antibiotic only” value in series [6] and in series [7] (plus 10 mM D-Lactic acid) was “enhances metabolic activity suppression” in each case.

As for `C[C@H](O)C(=O)O` [L-Lactic acid], the “breakpoint of metabolic rate (concentration range in which the change of activity is clearest)” value in series [8] (Resazurin reduction in comparison to vehicle-only treatment) was “No comparable breakpoint is observed”. Besides, the “change in metabolic activity” value in [8] (resorufin fluorescence, same concentrations as D-Lactic acid) is given as “No change in metabolic activity”.

For the compound `O=C(O)C(O)c1ccccc1` (stereo not shown) [2-hydroxy-2-phenylacetic acid], the “Water solubility*” value in series [1] is 1140 mM.

Turning to `CO/N=C(\C(=O)N[C@@H]1C(=O)N2C(C(=O)O)=C(CSc3nc(=O)c(=O)[nH]n3C)CS[C@H]12)c1csc(N)n1` [ceftriaxone], the “MIC + 1 mM D-Lactic acid” value in [3] turned out to be 4.0; in series [4], 8 µg/mL. In addition, the “MIC + 10 mM D-Lactic acid” value in [3] stood at 4.0; in [4] it was 8 µg/mL. In addition, in [4], the MIC is 16 µg/mL (≈ 28.9 µM). Besides, the “Relative metabolic activity, antibiotic plus D-Lactic acid versus antibiotic only” value in [6], in [7] (plus 0.1 mM D-Lactic acid) and in series [9] was “enhances metabolic activity suppression” each time.

Take `[Cu+2]` [Cu^2+]: the “MIC D-Lactate salt” value in series [10] (metal ion as D-Lactate salt) is 4 mM. Besides, the “MIC (NO3)2 salt” value in series [10] (metal ion as nitrate salt) is 8 mM.
